Assay results as given in patent US20250171414A1, “COMPOUND SERVING AS MASP-2 INHIBITOR, PHARMACEUTICAL COMPOSITION, PREPARATION METHOD THEREFOR, AND USE THEREOF” (WUHAN CREATERNA SCIENCE AND TECHNOLOGY CO., LTD., priority 2022, published 2025).
Like-named read-outs stand apart in the source and are kept apart here. Each block holds one compound with its values, some of them ahead of it.

Tests used:
[1] = In vivo pharmacokinetic study in SD rats; details: Sprague-Dawley (SD), rat, plasma, 1 mg/kg, clear; for Cmax: read-out: Cmax
Procedure: After adaptive feeding, the SPF SD rats were each subjected to a single administration of 1 mg/kg or 3 mg/kg of the compound of the present disclosure intragastrically or by tail vein bolus injection. Plasma was collected at specific time points after administration, and the concentration of the compound in plasma was detected by LC-MS/MS (AB Sciex Qtrap 4500).

[2] = system: lectin pathway (MBL) in human serum; experiment: Inhibition of activity of lectin pathway (MBL) in human serum (WIESLAB Complement System MBL Pathway kit); format: biochemical; details: 1% human serum
Procedure: The inhibition of the activity of the lectin pathway (MBL) in human serum by compounds was detected using a WIESLAB® Complement System MBL Pathway kit (SVAR, COMPLMP320). Test compounds were each serially diluted in a buffer (Diluent MP), and 1% human serum was incubated with the diluted compound solution for 15 min at room temperature. 100 μL of the mixture was added to a microplate and incubated at 37° C. for 60 min. The liquid in the wells was discarded, and the microplate was washed three times with a washing solution. A Conjugate antibody solution was added at 100 μL/well, and the resulting mixture was incubated for 30 min at 25° C. The liquid in the wells was discarded, and the microplate was washed three times with a washing solution; a substrate solution was added at 100 μL/well, and the resulting mixture was incubated for 30 min at 25° C.; the terminator was added at 50 μL/well, and the absorbance at 405 nm was detected within 30 min by using a microplate reader.

Structure (SMILES): C[C@H](NC(=O)C1C=C(c2ccc(F)cc2)CCN1)C(=O)N[C@@H]1CCc2nc(N)ccc21 (single isomer, unassigned) [Compound L064-IS-02]
AUC(0-t) ([1]; IV, not fasting): 15600 ± 5150 ng·h/mL | half-life ([1]; IV, not fasting): 4.18 ± 1.02 h | Cmax ([1]; IV, not fasting): 16000 ± 2070 ng/mL | AUC(0-t) ([1]; PO, fasting): 2630 ± 245 ng·h/mL | half-life ([1]; PO, fasting): 5.57 ± 1.46 h | Cmax ([1]; PO, fasting): 875 ± 155 ng/mL | IC50 [2]: 7.57 nM

Structure (SMILES): C[C@H](NC(=O)[C@@H]1C=C(c2ccc(Cl)cc2)CCN1)C(=O)N[C@@H]1CCc2nc(N)ccc21 (single isomer, unassigned) [Compound L066-IS-02]
AUC(0-t) ([1]; IV, not fasting): 17100 ± 4640 ng·h/mL | half-life ([1]; IV, not fasting): 4.51 ± 1.29 h | Cmax ([1]; IV, not fasting): 15900 ± 1070 ng/mL | AUC(0-t) ([1]; PO, fasting): 3240 ± 233 ng·h/mL | half-life ([1]; PO, fasting): 4.93 ± 0.51 h | Cmax ([1]; PO, fasting): 1140 ± 164 ng/mL | IC50 [2]: 9.52 nM

Structure (SMILES): C[C@H](NC(=O)[C@@H]1C=C(c2ccc(F)c(F)c2)CCN1)C(=O)N[C@@H]1CCc2nc(N)ccc21 (single isomer, unassigned) [Compound L069-IS-02]
AUC(0-t) ([1]; IV, not fasting): 20000 ± 3840 ng·h/mL | half-life ([1]; IV, not fasting): 3.39 ± 0.17 h | Cmax ([1]; IV, not fasting): 15700 ± 1130 ng/mL | AUC(0-t) ([1]; PO, fasting): 6930 ± 968 ng·h/mL | half-life ([1]; PO, fasting): 3.37 h | Cmax ([1]; PO, fasting): 1190 ± 162 ng/mL | IC50 [2]: 17.4 nM

Structure (SMILES): Cc1cc(F)ccc1C1=C[C@@H](C(=O)N[C@@H](C)C(=O)N[C@@H]2CCc3nc(N)ccc32)NCC1 [Compound L074-IS-02, (S)-N-((S)-1-(((R)-2-amino-6,7-dihydro-5H-cyclopenta[b]pyridin-5-yl)amino)-1-oxopropan-2-yl)-4-(4-fluoro-2-methylphenyl)-1,2,5,6-tetrahydropyridine-2-carboxamide]
IC50 [2]: 2.79 nM

Structure (SMILES): C[C@H](NC(=O)[C@@H]1C=C(c2ccc(F)cc2Cl)CCN1)C(=O)N[C@@H]1CCc2nc(N)ccc21 [Compound L075-IS-02, (S)-N-((S)-1-(((R)-2-amino-6,7-dihydro-5H-cyclopenta[b]pyridin-5-yl)amino)-1-oxopropan-2-yl)-4-(2-chloro-4-fluorophenyl)-1,2,5,6-tetrahydropyridine-2-carboxamide]
IC50 [2]: 4.89 nM

Structure (SMILES): C[C@H](NC(=O)[C@@H]1C=C(c2ccc(F)c(C(F)F)c2)CCN1)C(=O)N[C@@H]1CCc2nc(N)ccc21 [Compound L078-IS-02, (S)—N—((S)-1-(((R)-2-amino-6,7-dihydro-5H-cyclopenta[b]pyridin-5-yl)amino)-1-oxopropan-2-yl)-4-(3-(difluoromethyl)-4-fluorophenyl)-1,2,5,6-tetrahydropyridine-2-carboxamide]
IC50 [2]: 16.3 nM

Structure (SMILES): C[C@H](NC(=O)[C@@H]1C=C(c2ccc(F)cc2CF)CCN1)C(=O)N[C@@H]1CCc2nc(N)ccc21 [Compound L079-IS-02, (S)—N—((S)-1-(((R)-2-amino-6,7-dihydro-5H-cyclopenta[b]pyridin-5-yl)amino)-1-oxopropan-2-yl)-4-(4-fluoro-2-(fluoromethyl)phenyl)-1,2,5,6-tetrahydropyridine-2-carboxamide]
IC50 [2]: 2.9 nM

Structure (SMILES): C[C@H](NC(=O)[C@@H]1C=C(c2ccc(F)cc2C(F)F)CCN1)C(=O)N[C@@H]1CCc2nc(N)ccc21 [Compound L080-IS-02, (S)—N—((S)-1-(((R)-2-amino-6,7-dihydro-5H-cyclopenta[b]pyridin-5-yl)amino)-1-oxopropan-2-yl)-4-(2-(difluoromethyl)-4-fluorophenyl)-1,2,5,6-tetrahydropyridine-2-carboxamide]
IC50 [2]: 2.87 nM

Structure (SMILES): C[C@H](NC(=O)[C@@H]1C=C(c2cccc(Cl)c2)CCN1)C(=O)N[C@@H]1CCc2nc(N)ccc21 [Compound L081-IS-02, (S)—N—((S)-1-(((R)-2-amino-6,7-dihydro-5H-cyclopenta[b]pyridin-5-yl)amino)-1-oxopropan-2-yl)-4-(3-chlorophenyl)-1,2,5,6-tetrahydropyridine-2-carboxamide]
IC50 [2]: 7.41 nM

IC50 [2]: 0.97 nM
Structure (SMILES): Nc1ccc2c(n1)CC[C@H]2NC(=O)[C@@H]1C[C@@H]2C[C@@H]2N1C(=O)[C@H]1C[C@H](Cc2ccc(F)cc2)CN1 [Compound L104-IS-02, (1S,3S,5S)—N—((R)-2-amino-6,7-dihydro-5H-cyclopenta [b]pyridin-5-yl)-2-((2R,4S)-4-(4-fluorobenzyl)pyrrolidine-2-carbonyl)-2-azabicyclo[3.1.0]hexane-3-carboxamide]
